According to ChEMBL document CHEMBL1201862, “PubChem BioAssay data set” (2004):
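Growth conditions: 96-well plates. Treatment: test compound, 48 hours, 5 concentrations. Analysis: linear interpolation between bracketing concentrations; unreached endpoints set to highest concentration. Here, GI50 denotes the concentration required for 50% inhibition of growth.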 Calls of active or inactive are those of the source. No stated cut-off is given here; in the data, active = GI50 up to about 1.1 µM and inactive = higher.

Assays:
Assay in all cases: NCI-60 cell line screen, 48 h
ACHN = system: ACHN
CAKI-1 = system: CAKI-1
CCRF-CEM = system: CCRF-CEM
EKVX = system: EKVX
KM12 = system: KM12
MOLT-4 = system: MOLT-4
NCI-H460 = system: NCI-H460
OVCAR-3 = system: OVCAR-3
RXF 393 = system: RXF 393
SF-295 = system: SF-295
SK-MEL-28 = system: SK-MEL-28
SK-MEL-5 = system: SK-MEL-5
SW-620 = system: SW-620
TK-10 = system: TK-10
U-251 = system: U-251
UACC-257 = system: UACC-257
UO-31 = system: UO-31
HL-60 = system: HL-60
LOX IMVI = system: LOX IMVI
NCI-H226 = system: NCI-H226

| SMILES | GI50 (ACHN) | GI50 (CAKI-1) | GI50 (CCRF-CEM) | GI50 (EKVX) | GI50 (KM12) | GI50 (MOLT-4) | GI50 (NCI-H460) | GI50 (OVCAR-3) | GI50 (RXF 393) | GI50 (SF-295) | GI50 (SK-MEL-28) | GI50 (SK-MEL-5) | GI50 (SW-620) | GI50 (TK-10) | GI50 (U-251) | GI50 (UACC-257) | GI50 (UO-31) | GI50 (HL-60) | GI50 (LOX IMVI) | GI50 (NCI-H226) |
| --- | --- | --- | --- | --- | --- | --- | --- | --- | --- | --- | --- | --- | --- | --- | --- | --- | --- | --- | --- | --- |
| CCOC(=O)c1cc(C2CCN(Cc3ccccc3)C2=S)c(C(=O)C=[N+]=[N-])[nH]1 (configuration not stated) | 27.2 µM (inactive) | 68.5 µM (inactive) | 13.4 µM (inactive) | 26.7 µM (inactive) | 55.5 µM (inactive) | 30.4 µM (inactive) | 23.9 µM (inactive) | 17.5 µM (inactive) | 31 µM (inactive) | 20.5 µM (inactive) | 26 µM (inactive) | 19.3 µM (inactive) | 38.6 µM (inactive) | 35.9 µM (inactive) | 25.3 µM (inactive) | 25.8 µM (inactive) | 18.8 µM (inactive) |  |  |  |
| CCOC(=O)NC(OCc1ccccc1)(C(=O)OC)C(F)(F)F (configuration not stated) | > 100 µM (inactive) | 8.2 µM (inactive) | > 100 µM (inactive) | > 100 µM (inactive) | > 100 µM (inactive) | > 100 µM (inactive) | > 100 µM (inactive) | > 100 µM (inactive) | > 100 µM (inactive) | > 100 µM (inactive) | > 100 µM (inactive) | > 100 µM (inactive) | > 100 µM (inactive) | > 100 µM (inactive) | > 100 µM (inactive) | > 100 µM (inactive) | > 100 µM (inactive) | > 100 µM (inactive) | > 100 µM (inactive) |  |
| C/C=C/C1=CC(=O)C(O)C1O (configuration not stated) |  | 14.5 µM (inactive) | 22.7 µM (inactive) | 44.6 µM (inactive) | 15.3 µM (inactive) | 28 µM (inactive) | 19.7 µM (inactive) | 24.5 µM (inactive) | 15.1 µM (inactive) | 44.7 µM (inactive) | 30.9 µM (inactive) | 28.4 µM (inactive) | 27.2 µM (inactive) |  | 44.8 µM (inactive) | 29.4 µM (inactive) | 32.2 µM (inactive) | 15.1 µM (inactive) | 16.5 µM (inactive) | 24.1 µM (inactive) |
| N#CCc1c(F)c(F)c(F)c(F)c1F | > 100 µM (inactive) | > 100 µM (inactive) | > 100 µM (inactive) | > 100 µM (inactive) | > 100 µM (inactive) | > 100 µM (inactive) |  |  | > 100 µM (inactive) | > 100 µM (inactive) | > 100 µM (inactive) | 54.6 µM (inactive) | > 100 µM (inactive) | > 100 µM (inactive) | > 100 µM (inactive) | > 100 µM (inactive) | > 100 µM (inactive) | > 100 µM (inactive) | > 100 µM (inactive) | > 100 µM (inactive) |
| Cc1ccc(S(=O)(=O)N2c3ccccc3[C@H]3CCc4c([nH]c5ccccc45)[C@H]32)cc1 | > 100 µM (inactive) | 4.33 µM (inactive) | 70 µM (inactive) | > 100 µM (inactive) | 17.9 µM (inactive) | 66.1 µM (inactive) | > 100 µM (inactive) | > 100 µM (inactive) | > 100 µM (inactive) | > 100 µM (inactive) | > 100 µM (inactive) | 32 µM (inactive) | > 100 µM (inactive) | > 100 µM (inactive) | > 100 µM (inactive) | > 100 µM (inactive) | > 100 µM (inactive) |  | > 100 µM (inactive) | 15.3 µM (inactive) |
| CC1CN=C(N(C(=O)Nc2ccccc2)C2CCCCC2)S1 (configuration not stated) | 13.5 µM (inactive) | 12.4 µM (inactive) | 20.7 µM (inactive) | 15.7 µM (inactive) | 16.1 µM (inactive) | 16.7 µM (inactive) | 16.6 µM (inactive) | 17.7 µM (inactive) |  | 16.7 µM (inactive) | 12.4 µM (inactive) | 15.1 µM (inactive) | 14.1 µM (inactive) | 16.7 µM (inactive) | 16.9 µM (inactive) | 16 µM (inactive) | 17.3 µM (inactive) | 14.8 µM (inactive) | 13.5 µM (inactive) |  |
| O=C(Nc1c(C(=O)NC2CCCCC2)[nH]c(=O)[nH]c1=O)c1ccc(Cl)cc1 | > 100 µM (inactive) | > 100 µM (inactive) | > 100 µM (inactive) | > 100 µM (inactive) | 49.3 µM (inactive) | > 100 µM (inactive) | > 100 µM (inactive) | > 100 µM (inactive) | 79.6 µM (inactive) | > 100 µM (inactive) | > 100 µM (inactive) | > 100 µM (inactive) | > 100 µM (inactive) | > 100 µM (inactive) |  |  | > 100 µM (inactive) | > 100 µM (inactive) | > 100 µM (inactive) | > 100 µM (inactive) |
| COC(=O)C(C/C=C(\C)c1ccc(Cl)cc1)C(C)=O (configuration not stated) |  |  | 30.1 µM (inactive) | 54.5 µM (inactive) | 37 µM (inactive) | 17.9 µM (inactive) | > 100 µM (inactive) | 32.4 µM (inactive) | 26.7 µM (inactive) | 39.9 µM (inactive) | 61.5 µM (inactive) | 21.3 µM (inactive) | 50.9 µM (inactive) |  | 26.1 µM (inactive) | 23 µM (inactive) | 22.9 µM (inactive) | 14.6 µM (inactive) | 14.9 µM (inactive) | 24.6 µM (inactive) |
| COc1ccc(/N=C(\C)c2ccncc2)cc1 | 34.7 µM (inactive) | > 100 µM (inactive) | > 100 µM (inactive) | > 100 µM (inactive) | > 100 µM (inactive) | > 100 µM (inactive) | > 100 µM (inactive) | > 100 µM (inactive) | > 100 µM (inactive) | > 100 µM (inactive) | > 100 µM (inactive) | 94.8 µM (inactive) | 86.5 µM (inactive) | > 100 µM (inactive) | > 100 µM (inactive) | > 100 µM (inactive) | 24.2 µM (inactive) |  | > 100 µM (inactive) | 93.3 µM (inactive) |
| O=C(c1nc2ccc(Cl)cc2nc1O)C(O)c1ccccc1 (configuration not stated) | 39 µM (inactive) | 65.5 µM (inactive) | 2.32 µM (inactive) | 22 µM (inactive) | 51.2 µM (inactive) | 13.2 µM (inactive) | > 100 µM (inactive) | 32.8 µM (inactive) |  | > 100 µM (inactive) | 68.7 µM (inactive) | > 100 µM (inactive) | > 100 µM (inactive) | > 100 µM (inactive) | > 10 µM (inactive) | > 100 µM (inactive) | > 100 µM (inactive) | 9.86 µM (inactive) | 34.8 µM (inactive) | 84.7 µM (inactive) |
| Cc1csc(/N=C(/NCCN2CCOCC2)Nc2nc(C)cs2)n1 |  | > 76.2 µM (inactive) | > 100 µM (inactive) | > 87.9 µM (inactive) | > 100 µM (inactive) | > 100 µM (inactive) | > 100 µM (inactive) | > 100 µM (inactive) | > 100 µM (inactive) | > 80.2 µM (inactive) | > 100 µM (inactive) | > 100 µM (inactive) | > 100 µM (inactive) |  | > 100 µM (inactive) | > 100 µM (inactive) | > 100 µM (inactive) | 60.7 µM (inactive) | > 100 µM (inactive) | > 100 µM (inactive) |
| COC(=O)C(=O)Cc1nc2ccccc2o1 | > 100 µM (inactive) |  | > 100 µM (inactive) | > 100 µM (inactive) | > 100 µM (inactive) | > 100 µM (inactive) | > 100 µM (inactive) | > 100 µM (inactive) | > 100 µM (inactive) |  | > 100 µM (inactive) |  |  | > 100 µM (inactive) | > 100 µM (inactive) | > 100 µM (inactive) | > 100 µM (inactive) | > 100 µM (inactive) | > 100 µM (inactive) |  |
| Cc1ccc(NC(=O)C(Cc2c[nH]c3ccccc23)NC(=O)Oc2ccccc2)cc1C (configuration not stated) | 84.3 µM (inactive) | 53 µM (inactive) | 35.1 µM (inactive) | 59.7 µM (inactive) | 23.8 µM (inactive) | 57.5 µM (inactive) | 39.4 µM (inactive) | 34.8 µM (inactive) | 25.2 µM (inactive) | > 100 µM (inactive) | > 100 µM (inactive) | 44.1 µM (inactive) | > 100 µM (inactive) | 0.728 µM (active) | 80.2 µM (inactive) | > 100 µM (inactive) | 77.6 µM (inactive) | 40.6 µM (inactive) | 47.9 µM (inactive) | 73.1 µM (inactive) |
| COc1ccc(-c2c3c(nc4nc(SCCc5ccccc5)nc(N)c24)CCCC3)cc1OC | > 100 µM (inactive) | > 100 µM (inactive) | > 100 µM (inactive) | > 100 µM (inactive) | > 100 µM (inactive) | > 100 µM (inactive) | > 100 µM (inactive) | > 100 µM (inactive) | 24.9 µM (inactive) | 22.7 µM (inactive) | > 100 µM (inactive) | > 100 µM (inactive) | > 100 µM (inactive) | > 100 µM (inactive) | > 100 µM (inactive) | > 100 µM (inactive) | > 100 µM (inactive) | > 100 µM (inactive) | > 100 µM (inactive) |  |
| Cc1cccc(C(C)C)c1NC(=O)/C(Cc1c([N+](=O)[O-])cccc1[N+](=O)[O-])=N/NC(=O)CC#N | > 100 µM (inactive) | > 100 µM (inactive) | > 100 µM (inactive) | 7.05 µM (inactive) | > 100 µM (inactive) | > 100 µM (inactive) | > 100 µM (inactive) | > 100 µM (inactive) | > 100 µM (inactive) | > 100 µM (inactive) | > 100 µM (inactive) | > 100 µM (inactive) | > 100 µM (inactive) | 80.9 µM (inactive) |  |  | > 100 µM (inactive) | > 100 µM (inactive) | > 100 µM (inactive) | > 100 µM (inactive) |
